Source: patent publication US11465965B2, “Double-headed protease inhibitor” (UBE INDUSTRIES, LTD., priority 2017, dated 2022)

Experiment: in vivo
Details: male, SD, rat, po, 10 mg/kg
Experimental: Each test compound was suspended in a 0.5 W/V % methylcellulose 400 solution to prepare a suspension, and the resulting suspension was orally administered to a male SD rat of 7 to 8-week old (weight: 180 to 250 g). After 0.25, 0.5, 1, 2, 4, 8, and 24 hour(s) of the administration of each test compound, blood (EDTA-added blood) was collected from jugular vein under isoflurane inhalation anesthesia. […] To the resulting blood plasma was added acetonitrile, a mixed solvent of acetonitrile and water (1:1 (V/V)), or a mixed solvent of acetonitrile and 0.1 M hydrochloric acid (1:1 (V/V)), then the resulting mixture was mixed at 750 rpm for 3 minutes in a shaker, and subjected to centrifugal separation at 3700 rpm for 2 minutes in a centrifuge to remove proteins. The resulting sample was subjected to LC (liquid chromatography)/MS (mass spectrometry) measurement under the following measurement conditions.
Each compound concentration in blood plasma at each time of blood collection was calculated according to the internal standard method, and, area under the plasma concentration vs. time curve (AUCall (Area Under Curve)) was calculated according to the trapezoidal method.
The LC and MS systems used in the present test are as follows.
LC: LC20 or LC30 HPLC system manufactured by Shimadzu Corporation
Column: Phenomenex Kinetex C18 (50×2.1 mm, 2.6 μm)
Column temperature: 40° C.
Mobile phase A: aqueous solution with 0.1% formic acid, Mobile phase B: 50% acetonitrile/methanol solution with 0.1% formic acid

AUC: ≤ 100 ng·h/mL
SMILES: Cl.N=C(N)Nc1ccc2c(c1)CCCOc1c(cccc1C(=O)N(CCOCCOCCN(C(=O)c1cccc3c1OCCCc1cc(NC(=N)N)ccc1C(=O)O3)[C@@H](CC(=O)O)C(=O)O)[C@@H](CC(=O)O)C(=O)O)OC2=O [20-(c), (2S,13S)-3,12-bis(10-guanidino-13-oxo-6,7,8,13-tetrahydrodibenzo[b,f][1,4]dioxecin-4-carbonyl)-6,9-dioxa-3,12-diazatetradecane-1,2,13,14-tetracarboxylic acid hydrochloride]
